For 67 molecules, IC50 and fold change results are on record in PubChem BioAssay AID1419 (Emory University Molecular Libraries Screening Center, 2008).

Activity calls are given as the source filed them. How the calls were made is not given here.

The nature of the experiment: EBV protein-peptide binding inhibitors, dose response, biochemical, fluorescence polarization (AID 1419). The note with it: cell-free protein-peptide binding, 2 h; for fold change: measured here: P channel fold over control, at 54 µM. On the technique in general: Polarisation of emitted light reports the rotation of a fluorescent probe.

As to `COC(=O)C[n+]1cccc2ccccc21`, the IC50 was 1.59 µM and the fold change was 14.8.

As for `COc1cc(CCC(=O)N2CCN(c3ncccn3)CC2)cc(OC)c1OC`, the IC50 is > 54 µM (inactive) and the fold change amounted to 1.05.

Take `O=Cc1ccc2oc3nc4n(c(=O)c3c(=O)c2c1)CCCS4`: the IC50 is > 54 µM (inactive) and the fold change amounted to 1.03.

Turning to `O=C(ONc1ccc(N=NC(=O)c2ccccc2O)cc1)c1ccccc1`, the IC50 was > 54 µM (inactive) and the fold change was 1.09.

As to `O=C(CSc1nnc(SCc2ccccc2)s1)N/N=C/C=C/c1ccco1`, the IC50 was > 54 µM (inactive) and the fold change was determined as 1.04.

As for `CCN(CC)c1ccc2cc(S(=O)(=O)c3ccc(C)cc3)c(=O)oc2c1`, the IC50 was 6.25 µM and the fold change was determined as 36.6.

Consider `Cc1ccn(C(=O)c2ccc(NC(=O)C3CCCCC3)cc2)n1`, for which the IC50 was > 54 µM (inactive) and the fold change stood at 0.987.

Take `CCOC(=O)c1cc(-c2ccc(/C=C3/C(=O)NC(=O)C(C#N)=C3C)o2)ccc1Cl`: the 50% inhibitory concentration (IC50) is less than 0.42 µM and the fold change amounted to 2.14.

As to `NC(=O)c1c(NC(=O)CSc2nnc(-c3ccco3)n2-c2ccccc2)sc2c1CCC2`, the IC50 was 46 µM (inactive) and the fold change was 0.977.

`O=C(Cn1cnc2scc(-c3cccc([N+](=O)[O-])c3)c2c1=O)NCc1ccco1`: the IC50 was > 54 µM (inactive) and the fold change was found to be 1.04.

Regarding `Oc1[nH]c2ccccc2c1N=Nc1ccccc1`, the IC50 is 18.8 µM and the fold change stood at 21.6.

As to `CCN(CC)c1ccc(/C=C(/C#N)c2nc3ccccc3[nH]2)c(OC(C)C)c1`, the IC50 was 10.7 µM and the fold change is 14.3.

For `N#CC(c1nc2ccccc2nc1N1CCCC1)S(=O)(=O)c1ccccc1` (centres undefined), the IC50 was > 54 µM (inactive) and the fold change turned out to be 1.79.

With `Cc1ccc(S(=O)(=O)C(C#N)c2nc3ccccc3nc2N2CCCC2)cc1C` (centres undefined), the IC50 was > 54 µM (inactive) and the fold change amounted to 1.26.

`COc1ccc(NC(=O)Cn2ncc(Cl)c(Cl)c2=O)cc1S(=O)(=O)N1CCOCC1`: the IC50 was > 54 µM (inactive) and the fold change was determined as 0.96.

Turning to `CC(C)(C)c1cc[n+](-c2[nH]c(=O)sc2/C=N/NC([S-])=Nc2ccccc2)cc1`, the IC50 is less than 0.42 µM and the fold change was determined as 13.6.

Take `CS(=O)(=O)Nc1nc2n(n1)C(c1ccccc1)C=C(c1ccc(Br)cc1)N2` (centres undefined): the IC50 was 5.72 µM and the fold change was found to be 2.76.

As to `CCCCNc1ccc2c3c(cccc13)C(=O)N(CCCC)C2=O`, the IC50 was less than 0.42 µM and the fold change is 98.3.

Regarding `CC1CCc2cccc3c2N1c1cc(C#N)c(C#N)cc1O3` (centres undefined), the IC50 is 6.6 µM and the fold change amounted to 8.38.

For `COc1ccc(/C=C2\SC(=S)N(CCCC(=O)Nc3ccccn3)C2=O)cc1OC`, the IC50 was 8.78 µM and the fold change turned out to be 9.33.

As for `CCCCN1C(=O)/C(=C/C=C2\Oc3ccccc3N2CC)SC1=S`, the IC50 is 5.36 µM and the fold change came to 13.9.

Regarding `CCN(CC)C(=O)COC(=O)c1cc(-c2ccco2)nc2ccccc12`, the IC50 is 28.4 µM and the fold change came to 1.44.

Consider `Fc1ccccc1C(c1nnnn1C1CCCC1)N1CCN(Cc2ccccc2)CC1` (centres undefined), for which the IC50 is > 54 µM (inactive) and the fold change is 1.05.

For the molecule `CCOC(=O)c1c(C)[nH]c(C)c1C(=O)CSc1nc2ccccc2n1CC`, the IC50 is > 54 µM (inactive) and the fold change amounted to 1.24.

Take `CN1C(=O)/C(=C\N2CCc3ccccc32)C(=O)NC1=S`: the IC50 was > 54 µM (inactive) and the fold change was determined as 1.14.

Turning to `Cc1ncc([N+](=O)[O-])n1Cc1cccc2ccccc12`, the IC50 is > 54 µM (inactive) and the fold change was found to be 0.957.

As for `CCn1c(CSc2n[nH]c(N)n2)nc2cc(C(=O)O)ccc21`, the IC50 was 4.18 µM and the fold change came out at 5.1.

Turning to `COc1nc(N/N=C/c2ccc(-c3cccc([N+](=O)[O-])c3)o2)nc(N2CCOCC2)n1`, the IC50 is 24.2 µM and the fold change was found to be 0.463.

Turning to `COc1cc(C2C(C#N)=C(N)OC3=C2C(=O)CC(C)(C)C3)c([N+](=O)[O-])cc1OC` (centres undefined), the IC50 was 6.61 µM and the fold change is 1.98.

Consider `COC(=O)c1ccccc1NC(=O)Nc1ncccc1C`, for which the IC50 was > 54 µM (inactive) and the fold change came out at 0.937.

Regarding `CCCCCn1c(N)c(-c2nc3ccccc3o2)c2c([N+](=O)[O-])nn(CC)c(=O)c21`, the IC50 is > 54 µM (inactive) and the fold change came to 0.747.

Regarding `O=C(CCN1C(=O)COc2ccccc21)NCc1ccco1`, the IC50 was > 54 µM (inactive) and the fold change worked out at 1.02.

For the molecule `CCCCOC(=O)Cn1c2ccc(OC)cc2c2nc3ccccc3nc21`, the IC50 was 4.54 µM and the fold change was found to be 5.84.

Regarding `COc1ccc(-c2nnc(-c3cc4c(ccc5ccccc54)oc3=O)o2)cc1`, the IC50 is 12.9 µM and the fold change amounted to 4.21.

On to `O=C1Nc2ccc(Cl)cc2C12Nc1ccccc1-c1nnc(SCc3ccccc3F)nc1O2` (centres undefined), for which the IC50 is 3.05 µM and the fold change turned out to be 14.3.

As for `COc1cc(C2C(C#N)=C(N)OC3=C2C(=O)CCC3)c([N+](=O)[O-])cc1OC` (centres undefined), the IC50 was > 54 µM (inactive) and the fold change is 1.22.

As to `Cc1cc(Br)c2nc3c(c(C(=O)O)c2c1)CCCCC3`, the IC50 was > 54 µM (inactive) and the fold change came to 1.06.

With `CCN(CC)c1ccc(/C=C/c2cc(-c3ccccc3)c3ccccc3n2)cc1`, the IC50 is 13.5 µM and the fold change was 80.7.

For `CN1C(=O)C(=Cc2ccc(N3CCCCCC3)cc2)C(=O)N(C)C1=O`, the IC50 was 6.16 µM and the fold change was 11.1.

For `Cc1ccc(CSc2nnc3c(n2)OC2(Nc4ccccc4-3)C(=O)Nc3ccc(F)cc32)cc1` (centres undefined), the IC50 was 6.29 µM and the fold change came out at 16.9.

For the molecule `Cc1ccc(C)c(S(=O)(=O)C(C#N)c2nc3ccccc3nc2N2CCCC2)c1` (centres undefined), the IC50 is 4.06 µM and the fold change is 1.67.

Regarding `C/C(=N/OC(=O)c1c(-c2c(Cl)cccc2Cl)noc1C)c1cnccn1`, the IC50 was > 54 µM (inactive) and the fold change was 0.997.

In the case of `CCOc1cc(-c2ccc(N)c(OCC)c2)ccc1N`, the IC50 was 1.52 µM and the fold change worked out at 5.61.

On to `Cc1cccc2c3nc4ccccc4nc3n(CCCN3C(=O)c4ccccc4C3=O)c12`, for which the half-maximal inhibitory concentration (IC50) was 15.9 µM and the fold change stood at 3.01.

For the molecule `CCOc1cc(/C=C(\C#N)c2nc(-c3cccs3)c(NC(C)=O)s2)ccc1O`, the IC50 was 3.62 µM and the fold change is 5.84.

Take `Cc1cc(=O)oc(C)c1C(=O)Nc1ccc2ncccc2c1`: the IC50 was 2.96 µM and the fold change came to 5.89.

As for `Oc1c(Cl)cc(Cl)c(Cl)c1Cc1c(O)c(Cl)cc(Cl)c1Cl`, the IC50 is 5.97 µM and the fold change was 0.987.

With `Cc1cccc(NC(=O)CSc2nnnn2C)n1`, the IC50 is > 54 µM (inactive) and the fold change came to 1.02.

As for `Cc1ccc(C)c2nc3sc(C(=O)N4CCCc5ccccc54)c(N)c3cc12`, the IC50 was 1.24 µM and the fold change stood at 11.6.

Take `Cc1ccc(C2C(C(=O)c3cccs3)=C(O)C(=O)N2c2nnc(C)s2)cc1` (centres undefined): the IC50 is 0.9 µM and the fold change turned out to be 3.94.

Consider `O=c1[nH]c(C(Cl)Cl)nc2sc3c(c12)CCN(Cc1ccccc1)C3`, for which the IC50 is 11.8 µM and the fold change was determined as 2.

Take `COc1ccc(/C=C2\SC(c3ccc(C)cc3)=NC2=O)cc1OC`: the IC50 is > 54 µM (inactive) and the fold change is 8.37.

As to `Cc1ccc(S(=O)(=O)c2c(N)n(Cc3ccco3)c3nc4ccccc4nc23)cc1`, the IC50 was > 54 µM (inactive) and the fold change stood at 1.41.

`O=C1/C(=C/c2ccco2)SC(=S)N1c1cccnc1`: the IC50 is > 54 µM (inactive) and the fold change worked out at 1.09.

As to `CCOC(=O)Cn1c(=O)c(-c2cc(Br)ccc2N)nc2ccccc21`, the IC50 is > 54 µM (inactive) and the fold change was 6.44.

As to `CN1CCc2cc3c(c4c2[C@H]1[C@H](O)c1ccccc1-4)OCO3`, the concentration for half-maximal inhibition (IC50) was 10.3 µM and the fold change is 2.19.

For `CSC1=NSC2=NC(=O)/C(=C/c3coc4ccccc4c3=O)C(=N)N12`, the IC50 is 1.78 µM and the fold change was 106.

On to `Nc1c(C(=O)NC2CC2)sc2nc3c(c(-c4ccco4)c12)CC/C3=C/c1ccco1`, for which the IC50 is 1.32 µM and the fold change was found to be 3.52.

As to `CN(N=Nc1ccc([N+](=O)[O-])cc1)c1ccccc1`, the 50% inhibitory concentration (IC50) was 3.98 µM and the fold change came to 61.8.

Regarding `Cc1ccc(C2C3=C(CCCC3=O)Nc3[nH]c(=S)[nH]c(=O)c32)cc1` (centres undefined), the IC50 is > 54 µM (inactive) and the fold change stood at 0.983.

With `N#Cc1c2nc3ccccc3nc2n2cc(NC(=O)c3ccc(F)cc3)ccc12`, the IC50 was 4.15 µM and the fold change amounted to 0.583.

Turning to `N#CC1CC(c2ccc([N+](=O)[O-])cc2)=NN1c1ccc([N+](=O)[O-])cc1` (centres undefined), the IC50 is 3.86 µM and the fold change came out at 6.23.

For the molecule `NC(=O)c1sc2nc3c(c(-c4ccccc4)c2c1N)CCC3`, the IC50 was > 54 µM (inactive) and the fold change worked out at 0.963.

In the case of `N=C1/C(=C/c2ccc(-c3cccc(C(=O)O)c3)o2)C(=O)N=C2SC=C(c3ccccc3)N12`, the IC50 was 3.82 µM and the fold change was found to be 1.36.

On to `O=C(Nc1ccccc1F)C(=Cc1sc(N2CCOCC2)nc1-c1ccccc1)C(=O)Nc1ccccc1F`, for which the IC50 was 5.71 µM and the fold change was determined as 7.63.

For `COc1ccc2c3c(cccc13)C(=O)N(O)C2=O`, the IC50 was 4.72 µM and the fold change was 2.23.

For the molecule `COC(=O)c1cc(N2CCN(C)CC2)nc2ccccc12`, the IC50 is 32.8 µM (inactive) and the fold change came out at 1.52.

As a reminder, the IC50 is the concentration at which inhibition is half-maximal.
